Experimental findings from paper PMC8311653, “Design, Synthesis, In Vitro and In Vivo Characterization of Selective NKCC1 Inhibitors for the Treatment of Core Symptoms in Down Syndrome” (Journal of Medicinal Chemistry, 2021) are described below.

One data set addresses T1, NKCC1 (Homo sapiens, UniProt P55011).
T1 construct: host or cells: HEK293
T1 sequence (P55011 1-1212): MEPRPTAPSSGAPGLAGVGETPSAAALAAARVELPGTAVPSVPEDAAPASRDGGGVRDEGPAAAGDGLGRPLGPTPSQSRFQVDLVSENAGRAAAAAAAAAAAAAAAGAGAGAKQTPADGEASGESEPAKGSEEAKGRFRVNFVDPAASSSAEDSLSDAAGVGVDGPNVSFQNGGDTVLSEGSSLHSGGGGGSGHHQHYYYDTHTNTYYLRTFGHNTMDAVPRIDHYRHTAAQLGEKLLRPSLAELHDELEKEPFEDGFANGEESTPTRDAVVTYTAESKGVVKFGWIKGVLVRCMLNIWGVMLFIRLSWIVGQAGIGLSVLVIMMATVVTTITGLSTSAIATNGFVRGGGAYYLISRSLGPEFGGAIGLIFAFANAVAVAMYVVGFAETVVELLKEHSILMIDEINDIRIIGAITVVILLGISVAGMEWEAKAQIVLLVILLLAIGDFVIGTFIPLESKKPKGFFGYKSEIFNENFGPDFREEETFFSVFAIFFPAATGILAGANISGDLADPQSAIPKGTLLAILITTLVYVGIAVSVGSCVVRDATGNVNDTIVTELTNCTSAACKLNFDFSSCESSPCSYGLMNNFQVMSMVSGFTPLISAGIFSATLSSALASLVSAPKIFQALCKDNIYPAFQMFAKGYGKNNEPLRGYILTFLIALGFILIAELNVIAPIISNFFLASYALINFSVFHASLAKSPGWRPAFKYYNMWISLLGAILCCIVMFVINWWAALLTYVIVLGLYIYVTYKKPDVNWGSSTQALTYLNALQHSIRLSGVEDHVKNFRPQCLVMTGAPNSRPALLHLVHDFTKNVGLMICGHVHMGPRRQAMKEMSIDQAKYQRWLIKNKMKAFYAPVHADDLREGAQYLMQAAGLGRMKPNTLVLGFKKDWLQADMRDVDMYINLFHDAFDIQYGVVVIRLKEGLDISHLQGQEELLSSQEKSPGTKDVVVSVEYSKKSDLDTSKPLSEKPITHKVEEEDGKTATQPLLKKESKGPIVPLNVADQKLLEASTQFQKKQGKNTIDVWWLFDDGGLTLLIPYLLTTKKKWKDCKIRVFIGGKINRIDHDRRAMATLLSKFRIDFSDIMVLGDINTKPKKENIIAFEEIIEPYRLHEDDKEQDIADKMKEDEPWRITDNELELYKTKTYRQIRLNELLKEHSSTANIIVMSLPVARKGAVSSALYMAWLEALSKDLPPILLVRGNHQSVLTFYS
In words: Cl- influx assay in NKCC1-transfected HEK293 cells. To be noted: for inhibition at 10 µM: HEK293, read-out: Inhibition 10 μM Cl- influx (%); for inhibition at 100 µM: HEK293, read-out: Inhibition 100 μM Cl- influx (%). The format is cell-based. The method, then: HEK293 cells were cultured in Dulbecco’s modified Eagle’s medium (DMEM) supplemented with 10% fetal bovine serum, 1% L-glutamine, 100 U/mL penicillin, and 100 μg/mL streptomycin and maintained at 37 °C in a 5% CO2 humidified atmosphere. To assess NKCC1 and NKCC2 activity (Cl^– influx assay), 3 million HEK cells were plated in a 10 cm cell-culture dish and transfected with a transfection mixture comprising 5 mL of DMEM, 4 mL of Opti-MEM, 8 μg of DNA plasmid coding for NKCC1 (PRK-NKCC1 obtained from Medical Research Council and the University of Dundee), NKCC2 (OriGene plasmid #RC216145) subcloned in PRK5 plasmid, or mock control (empty vector), together with 8 μg of a plasmid coding for the Cl^–-sensitive variant of the membrane-targeted fluorescent protein YFP, mbYFPQS (Addgene plasmid #80742),[53] and 32 μL of Lipofectamin 2000. To assess KCC2 activity (Tl influx assay), cells were transfected with 8 μg of KCC2[54] subcloned in the PRK5 plasmid or mock control (empty vector) and 16 μL of Lipofectamin 2000. After 4 h, the cells were collected and plated in 96-well black-walled, clear-bottomed plates at a density of 2.5 × 10^4. After 48 h, cells were used for the Cl^– or Tl influx assays. All reagents were purchased from Life Technologies, unless otherwise specified.
Transfected cells were treated with 10 μM or 100 μM bumetanide (as positive controls), DMSO (as the negative control), or with each of our compounds in 100 μL/well of a Cl^–-free hypotonic solution (67.5 mM Na^+ gluconate, 2.5 mM K^+ gluconate, 15 mM HEPES pH 7.4, 50 mM glucose, 1 mM Na2HPO4, 1 mM NaH2PO4, 1 mM MgSO4, and 1 mM CaSO4). After 30 min of incubation, plates were loaded into a Victor 3V (PerkinElmer) multiplate reader equipped with an automatic liquid injector system, and fluorescence of Cl^–-sensitive mbYFPQS was recorded with excitation at 485 nm and emission at 535 nm. For each well, fluorescence was first recorded for 20 s of the baseline and for 60 s after delivery of a NaCl concentrated solution (74 mM final concentration in the assay well). Fluorescence of Cl^–-sensitive mbYFPQS is inversely correlated to the intracellular Cl^– concentration;[53] therefore, chloride influx into the cells determined a decrease in mbYFPQS fluorescence. To represent the fluorescent traces in time, we normalized the fluorescence value for each time point to the average of the fluorescence value of the first 20 s of the baseline (ΔF/F0). To quantify the average effects as represented by the bar plots, we expressed the decrease in fluorescence upon NaCl application as the average of the last 10 s of ΔF/F0 normalized traces. Moreover, for each experiment, to account for the contribution of Cl^– changes that were dependent on transporters/exchangers other than NKCC1 or NKCC2, we subtracted the value of the last 10 s of ΔF/F0 normalized traces obtained from mock-transfected cells (either control or treated) from the respective ΔF/F0 value obtained from the cells transfected with NKCC1 or NKCC2. We then presented in the figures all the data as a percentage of the fluorescence decrease versus the value of the control DMSO.

The subject of a further data set is WT and Ts65Dn mice. Briefly: Diuresis analysis in metabolic cages. To be noted: 0.6 mg kg-1 ip; adult WT and Ts65Dn mice; vs vehicle-treated mice. On the procedure:
A veterinarian was employed to maintain the health and comfort of the animals. Mice were housed in filtered cages in a temperature-controlled room with a 12:12 h dark/light cycle and with ad libitum access to water and food. All efforts were made to minimize animal suffering and use the lowest possible number of animals required to produce statistical relevant results, according to the “3Rs concept”. In this study, we used Ts65Dn mice maintained in their original genetic background[57] by crossing (more than 40 times) Ts65Dn female to C57BL/6JEi × C3SnHeSnJ (B6EiC3) F1 males (Jackson Laboratories). Ts65Dn mice were genotyped by PCR as previously described.[58] Only males were used for behavioral experiments. Ts65Dn and controls were randomly assigned to vehicle groups (2% DMSO in saline), bumetanide (Sigma, 0.6 mg kg^–1 body weight), or 40 (0.6 mg kg^–1 body weight) and treated daily for ∼21 days by intraperitoneal injection (i.p.). On the day of behavioral testing, injection was performed 1 h before the task began.

For orientation: inhibition means how much of the control response was suppressed. In the case of `CN(C)S(=O)(=O)c1cc(C(=O)O)ccc1NCCCCCCCC(F)(F)F` [Compound 1, 3-(-N,N-Dimethylsulfamoyl)-4-(8,8,8-trifluorooctylamino)benzoic Acid], at NKCC1, the inhibition at 10 µM is 37.1 ± 5% and the inhibition at 100 µM worked out at 88.5 ± 1.7%.
Turning to `CN(C)S(=O)(=O)c1cc(C(=O)O)c(O)cc1NCCCCCCCC(F)(F)F` [Compound 40, 5-(N,N-Dimethylsulfamoyl)-2-hydroxy-4-((8,8,8-trifluorooctyl)amino)benzoic Acid], the “diuretic effect (urine volume collected for 2 h)” value in the data set with WT and Ts65Dn mice is reported as “did not induce any significant diuresis”.
`CCCCNc1cc(C(=O)O)cc(S(N)(=O)=O)c1Oc1ccccc1` [bumetanide, reference compound]: on NKCC1, the inhibition at 10 µM was 58.8 ± 5.6% and the inhibition at 100 µM worked out at 71.7 ± 7%. In addition, the “diuretic effect (urine volume collected for 2 h)” value with WT and Ts65Dn mice is recorded as “significantly increased the urine volume”.
